From US20110104716A1, “NOVEL METHOD FOR SCREENING BRAIN-ACTIVE COMPOUNDS” (priority 2007, published 2011)
“Also recorded” adds a separate entry of the source. Where two headings read alike, the source gives them in different places.

System: hippocampal slices
Assay: Hippocampal slice cultures and induction of LTP (immunohistochemistry of LTP markers); for pCREB: key: ±: no change in the activation status; ++++: a qualitative maximal activation; ++: a half-maximum activation; −: a reduction of activation; for pMAPK: key: ±: no change in the activation status; ++++: a qualitative maximal activation; ++: a half-maximum activation; −: a reduction of activation
Type: cell-based, Wistar rats
Details: for AMPA rec. (AMPA receptors on the cell surface): 15 min treatment; for pMAPK / pCREB: relative activation vs vehicle treated sister cultures, 15 min treatment after 48 h in culture
Protocol: Seven-day-old Wistar rats were decapitated using a guillotine. In less than 1 minute the skull was opened, the cerebral hemispheres were separated and transferred and both hippocampi were dissected and transferred into ice cold buffer containing 137 mM NaCl, 5 mM KCl, 0.85 mM Na2HPO4, 1.5 mM CaCl2, 0.66 mM KH2PO4, 0.28 mM MgSO4, 1 mM MgCl2, 2.7 mM NaHCO3, 1 mM Kynurenic acid and 0.6% D-glucose. Transversal hippocampal slices (typically 400 μm) were prepared using a vibrating blade microtome (VT1200S; Leica Microsystems (Schweiz) AG, Heerbrugg, Switzerland) in the same buffer. Hippocampal slices were individually placed on a membrane insert (Millicell Culture Plate Inserts, 0.4 μm) and cultivated at 35° C., 5% CO2, 95% humidity in a medium containing a 1:1 mixture of BME and MEM (both from Invitrogen) containing 25% heat-inactivated horse serum, 1× GlutaMAX, 1× Penicillin/Streptomycin, 0.6% glucose and 1 mM Kynurenic acid (Stoppini et al. 1991 J Neurosci Methods 37(2):173-82). […] Sarcosine (100 μM) and ALX5407 (20 nM) were used routinely as positive controls. […] After the treatments, sections were washed and fixed for immunohistochemistry. Markers of enhanced synaptic activity, normally associated with LTP, representing an in vitro (or ex vivo) model of learning and memory, were quantified (see Table 1, below). Table 1. Relative activation of synaptic markers after treatment with both extracts and some of their constituent compounds in comparison to sister cultures treated with buffer. The activation of any of these markers (or a combination thereof) is observed in classical LTP experiments. Data are compared to vehicle treated sections, which is set as 100%.

[1] = compared to vehicle treated sections set as 100%
[2] = class symbol, vs vehicle treated sister cultures

Compound | LTP-inducing activity (biochemical markers typical for LTP) | AMPA rec. (AMPA receptors on the cell surface) [1] | pMAPK | pCREB | AMPA rec. (AMPA receptors on the cell surface) [2] | LTP-inducing activity (biochemical markers typical for LTP) (listed as p-cemene)
Cc1ccc(C(C)C)cc1O [Carvacrol] | lack the LTP-inducing activity | 0-176% | − |  |  | 
NCC(=O)O [Glycine] |  |  | ++ | ++ |  | 
C=CC(C)(O)CCC=C(C)C (centres unmarked) [Linalool] | lack the LTP-inducing activity |  | ± | ± | ± | 
Cc1ccc(C(C)C)cc1 [P-Cymene] | induce activation of biochemical pathway leading to LTP induction |  | ++++ | ++ | ± | induced biochemical markers typical for LTP
Cc1ccc(C(C)C)c(O)c1 [Thymol] | induced biochemical markers typical for LTP; also recorded: induce activation of biochemical pathway leading to LTP induction | 250-767% |  | ++++ |  | 
Caryophyllene | lack the LTP-inducing activity |  | ± | ± |  | 
